Experimental data as given in US9943599B2, “Therapeutic applications of calcium electroporation to effectively induce tumor necrosis” (Herlev Hospital, priority 2011, dated 2018).

Experiments:
DC-3F cells = experiment: ATP assay after calcium electroporation; assay type: cell-based, Chinese hamster
Description: DC-3F cells are electroporated as described in Example 1 with 1 mM calcium. Cells electroporated with HEPES buffer, non-electroporated cells with 1 mM calcium, and untreated cells are used as controls. Cell death induced by irreversible electroporation (8 pulses of 6.6 kV/cm with pulse duration of 99 μs) is used as […]. Cells are seeded in 96-well plates at a concentration of 3.1×10^4 cells/100 μl. Cells are lysed using Cell-Based Assay Lysis Buffer (Cayman Chemical, Ann Arbor, Mich.) and ATP content is determined after 1, 4 and 8 hours incubation by adding 100 μl rL/L Reagent (ENLITEN® ATP assay, Promega, Madison, Wis.) and measuring light emission using a luminometer (LUMIstar®, BMG biotechnology, Ortenberg, Germany).
Difference in ATP level after different treatments is assessed using two-way ANOVA with post least-squares-means test with Bonferroni correction for multiple comparisons.

basocellular carcinoma = experiment: Case study, calcium electroporation in a human patient; assay type: in vivo
Description: In a patient with multiple basocellular carcinomas, where all known treatment options had been tried and the patient was still in need of treatment, calcium electroporation was tried.
In this patient, lesions that were verified by biopsy to contain basocellular carcinoma were treated with different doses of calcium chloride or calcium glubionate with electroporation. Three lesions were treated, measuring 0.8 to 2 cm, by 0.1-0.2 mm deep.
After local anaesthesia (Mir et al), calcium was injected intratumorally using a thin needle and 1 ml syringe. Volumes of resp. 0.1, 0.7 and 3.7 times the calculated tumor volume (in this case calculated as diameter times perpendicular diameter times depth due to the shape of the tumors) was injected.
Immediately after injection (within 45 seconds), electroporation was performed using a square wave pulse generator (CLINIPORATOR®, IGEA, Modena, Italy) and needle electrodes with parallel arrays 0.4 cm apart. Eight pulses of a duration of 0.1 ms and 1 kV/cm (voltage to electrode distance ratio) were administered immediately after calcium injection.

[1] = system: H69 (human small cell lung cancer) tumors; experiment: Hypothetical volume test of injected solution; assay type: in vivo, NMRI-Foxn1^nu mice; settings: with electroporation
Description: H69, a human small cell lung cancer cell line stably transfected with EGFP regulated by the cytomegalo-virus (CMV) promoter, is used for the in vivo experiments. The cells are tested by rapid MAP27 panel (Taconic, Hudson N.Y.) before use without signs of infection. Cells are maintained in vitro as described in Example 1. 1.5×10^6 cells/100 μl PBS are injected subcutaneously in both flanks of NMRI-Foxn1^nu mice (Harlan, Indianapolis, Ind.) that are 9-11 weeks old. Tumor pieces are transplanted from donor mice to the right flank of nude mice. HYPNORM™-DORMICUM™ (fentanyl/fluanisone/midazolam; VetaPharma, Leeds, U K and Roche, Basel, Switzerland) is used for anesthesia complemented with RIMADYL® (Carprofen) (Pfizer ApS, Ballerup, Denmark) […] as lidocaine (Region Hovedstadens Apotek, Herlev, Denmark) in the incision. […] Tumor volume is calculated as ab^2n/6, where “a” is the largest diameter and “b” is the largest diameter perpendicular to “a”. […] Background fluorescence is measured on the opposite flank and then the background fluorescence level is subtracted from fluorescence intensity of tumors. Finally, all fluorescence intensity below 100 normalised counts (NC) is filtered away using ART, Saint-Laurent, Quebec OPTIX® Optiview version 2.02 software (ART, Saint-Laurent, Quebec).
The differences in tumor volume and fluorescence intensity between tumors injected with the different solution volumes in the 4 treatment groups are evaluated as repeated measurements, validated and analysed with an exponential decrease model with Bonferroni correction for multiple comparisons using SAS® software version 9.1 (SAS, Cary, N.C.). ‘Group’, ‘days’ and ‘mouse’ are considered as factors and baseline levels of tumor volume or fluorescence intensity are used as covariant.

[2] = system: MDA-MB231 (human breast cancer) tumors; experiment: Fraction of necrosis after calcium electroporation, MDA-MB231 tumors; assay type: in vivo, NMRI-Foxn1^nu mice
Description: LPB, a murine sarcoma cell line, B16, a murine malignant melanoma cell line, MDA-MB231, human a breast cancer cell line, HT29, a human colon cancer cell line, and SW780, a human bladder cancer cell line were used for the in vivo experiment. The cells were tested by rapid MAP27 panel (Taconic, Hudson N.Y.) before use without signs of infection. 2×10^5 cells (B16), 8×10^5 cells (LPB), 2.5×10^6 cells (MDA-MB231), and 5×10^6 cells (HT29 and SW780) in 100 μl PBS were injected subcutaneously in the flank of NMRI-Foxn1^nu mice (Harlan, Indianapolis, Ind.) that were 9-11 weeks old. Mice were randomised at a tumor volume above 85 mm^3 and tumors were treated with injection of isotonic calcium-chloride solution (168 mM CaCI2) and electroporation (8 pulses of 1.0 kv/cm for 100 μs and a frequency of 1 Hz) using a 6 mm plate electrode and a square wave electroporator (CLINIPORATOR®, IGEA, Modena, Italy). Tumor volume was calculated as ab^2n/6, where a is the largest diameter and b is the largest diameter perpendicular to a. The injected volume was half of the tumor volume. […] The fraction of necrosis within the tumor was estimated from HE-sections by stereological point counting using a light microscope, evaluated by a pathologist, blinded with respect to treatment status.
The difference in fraction of necrosis at different time after treatment was assessed using student's t-test.

## [Ca+2].[Cl-].[Cl-] [calcium chloride]
DC-3F cells; 1 mM calcium with electroporation, up to 8 hours after treatment
  ATP level, percent of control: 10.3%
DC-3F cells; 1 mM calcium without electroporation
  effect on ATP levels: does not affect ATP levels
Basocellular carcinoma; highest volume (3.7 times tumor volume), with electroporation
  normal skin reaction (clinical observation): necrosis of normal skin
Basocellular carcinoma; injected volume 0.1 of tumor volume, with electroporation
  tumor response (biopsy): did not lead to changes
Basocellular carcinoma; injected volume 0.7 of tumor volume, electroporation 8 pulses 0.1 ms 1 kV/cm
  tumor response (biopsy): efficient tumor cell kill
[1]; volume ratio 0.2, 004, 0.6 or 0.8
  tumors eliminated: eliminates most of the tumors
[1]
  ulceration of treated tumors: occurs in most
[1]; all 4 injection volumes
  fluorescence intensity of tumors: decrease drastically
[2]; 168 mM CaCl2, half tumor volume, electroporation, first days after treatment
  fraction of necrosis in tumors, course: progressive necrosis
[2]; 6 days after the treatment
  tumor re-growth: re-growth
